≈ marks a conversion by molar mass, not a printed value.
These molecules were tested on PAO1 mutant MIN16_4, nalC(T50P), pilM(Q62X) (assay: MIC, Sensititre custom plate). Details: Pseudomonas aeruginosa, PAO1, read-out: MIC, Sensititre.
Type: cell-based
Experimental: (§1) Selection of resistant mutants was performed for minocycline with and without RW01 in three independent replicates for wild-type P. aeruginosa reference strain PAO1. Tubes containing Mueller-Hinton broth (MHB) were inoculated and incubated for 24 h at 37°C. Afterward, 1/100 dilution of each tube was incubated at 37°C in MHB to late-exponential growth phase, measured by spectrophotometry at OD600. […] A control plate without antibiotic was included as inoculum control. After overnight incubation, colony counting of each treatment was performed to analyze the generation of resistant population. The mutant prevention concentration (MPC) was defined as the lowest concentration of antibiotic yielding no growth of resistant mutants. Selected mutants were checked for susceptibility profiles by using a Sensititre custom plate (Thermo Fisher Scientific, Massachusetts, USA) for Gram-negative bacteria, following the manufacturer’s instructions.

Question: How did the MIC turn out when `CC(C)(O/N=C(\C(=O)N[C@@H]1C(=O)N2C(C(=O)[O-])=C(C[n+]3ccccc3)CS[C@H]12)c1csc(N)n1)C(=O)O` [Ceftazidime, ceftazidime] was run?
Answer: 4 µg/mL (≈ 7.32 µM)

What follows are molecules tested on PAO1 mutant MIN8_1, nalD(R3C), pilM(Q62X) (assay: MIC, Sensititre custom plate). Details: Pseudomonas aeruginosa, PAO1, read-out: MIC, Sensititre.
Type: cell-based
Experimental: as §1

Question: With `CC(C)(O/N=C(\C(=O)N[C@@H]1C(=O)N2C(C(=O)[O-])=C(C[n+]3ccccc3)CS[C@H]12)c1csc(N)n1)C(=O)O` [Ceftazidime, ceftazidime] as the molecule, how does the MIC read?
Answer: 4 µg/mL (≈ 7.32 µM)

Each molecule was assayed on PAO1 mutant MIN8_4, pilZ(nt18InsT) (assay: MIC, Sensititre custom plate). Details: Pseudomonas aeruginosa, PAO1, read-out: MIC, Sensititre.
Type: cell-based
Experimental: as §1

Question: How did the MIC turn out when `CC(C)(O/N=C(\C(=O)N[C@@H]1C(=O)N2C(C(=O)[O-])=C(C[n+]3ccccc3)CS[C@H]12)c1csc(N)n1)C(=O)O` [Ceftazidime, ceftazidime] was run?
Answer: 4 µg/mL (≈ 7.32 µM)

The molecules below were run on PAO1 mutant MIN8_2, pilZ(nt18InsT) (assay: MIC, Sensititre custom plate). Details: Pseudomonas aeruginosa, PAO1, read-out: MIC, Sensititre.
Type: cell-based
Experimental: as §1

Question: With `CC(C)(O/N=C(\C(=O)N[C@@H]1C(=O)N2C(C(=O)[O-])=C(C[n+]3ccccc3)CS[C@H]12)c1csc(N)n1)C(=O)O` [Ceftazidime, ceftazidime] as the molecule, how does the MIC read?
Answer: 4 µg/mL (≈ 7.32 µM)

What follows are molecules tested on P. aeruginosa PAOΔoprM (assay: MIC, CLSI broth microdilution in BD Phoenix AST Broth). Details: Pseudomonas aeruginosa.
Type: cell-based, Pseudomonas aeruginosa
Experimental: (§2) MIC for RW01 was also tested.
(§3) FIC of RW01 (FICRW01)=MIC of RW01 in combination/MIC of RW01 alone,FIC of antibiotic (FICATB)=MIC of ATB in combination/MIC of ATB alone,FICI=FICRW01 +FICATB.
(§4) FICI was interpreted as follows: synergistic effect if FICI is ≤0.5; additive effect if 0.5 < FICI ≤ 1.0; indifferent effect if 1.0 < FICI ≤ 2.0; and finally, antagonistic effect if FICI is >2.0. The average FICI considering the antibiotic MIC (no growth in any of the replicates) at different concentrations of RW01 was calculated ([28]).

Question: For `CC(C)(O/N=C(\C(=O)N[C@@H]1C(=O)N2C(C(=O)[O-])=C(C[n+]3ccccc3)CS[C@H]12)c1csc(N)n1)C(=O)O` [Ceftazidime, ceftazidime], which MIC is on record?
Answer: 2 µg/mL

What follows are molecules tested on P. aeruginosa PAO1 in the same assay as above. Details: Pseudomonas aeruginosa, PAO1, strain PAO1; agent alone; 37°C, 18–22 h; three biological replicates; read-out: MIC.
Type: cell-based, Pseudomonas aeruginosa
Experimental: as §2, §3, §4

Question: For `CC(C)(O/N=C(\C(=O)N[C@@H]1C(=O)N2C(C(=O)[O-])=C(C[n+]3ccccc3)CS[C@H]12)c1csc(N)n1)C(=O)O` [Ceftazidime, ceftazidime], which MIC is on record?
Answer: 2 µg/mL

Each molecule was assayed on P. aeruginosa 41B in the same assay as above. Details: Pseudomonas aeruginosa; strain 41B; agent alone; 37°C, 18–22 h; three biological replicates.
Type: cell-based, Pseudomonas aeruginosa
Experimental: as §2, §3, §4

Question: For `CC(C)(O/N=C(\C(=O)N[C@@H]1C(=O)N2C(C(=O)[O-])=C(C[n+]3ccccc3)CS[C@H]12)c1csc(N)n1)C(=O)O` [Ceftazidime, ceftazidime], which MIC is on record?
Answer: 8 µg/mL

Each molecule was assayed on P. aeruginosa PAOΔmexZ in the same assay as above. Details: Pseudomonas aeruginosa, strain PAOΔmexZ; agent alone; 37°C, 18–22 h; three biological replicates.
Type: cell-based, Pseudomonas aeruginosa
Experimental: as §2, §3, §4

Question: How did the MIC turn out when `CC(C)(O/N=C(\C(=O)N[C@@H]1C(=O)N2C(C(=O)[O-])=C(C[n+]3ccccc3)CS[C@H]12)c1csc(N)n1)C(=O)O` [Ceftazidime, ceftazidime] was run?
Answer: 4 µg/mL

Each molecule was assayed on P. aeruginosa 41A in the same assay as above. Details: Pseudomonas aeruginosa; strain 41A; agent alone; 37°C, 18–22 h; three biological replicates.
Type: cell-based, Pseudomonas aeruginosa
Experimental: as §2, §3, §4

Question: With `CC(C)(O/N=C(\C(=O)N[C@@H]1C(=O)N2C(C(=O)[O-])=C(C[n+]3ccccc3)CS[C@H]12)c1csc(N)n1)C(=O)O` [Ceftazidime, ceftazidime] as the molecule, how does the MIC read?
Answer: 4 µg/mL

Each molecule was assayed on P. aeruginosa PAOUW in the same assay as above. Details: Pseudomonas aeruginosa, strain PAOUW; agent alone; 37°C, 18–22 h; three biological replicates; read-out: MIC.
Type: cell-based, Pseudomonas aeruginosa
Experimental: as §2, §3, §4

Question: With `CC(C)(O/N=C(\C(=O)N[C@@H]1C(=O)N2C(C(=O)[O-])=C(C[n+]3ccccc3)CS[C@H]12)c1csc(N)n1)C(=O)O` [Ceftazidime, ceftazidime] as the molecule, how does the MIC read?
Answer: 2 µg/mL

These molecules were tested on P. aeruginosa PAOΔmexR in the same assay as above. Details: Pseudomonas aeruginosa.
Type: cell-based, Pseudomonas aeruginosa
Experimental: as §2, §3, §4

Question: How did the MIC turn out when `CC(C)(O/N=C(\C(=O)N[C@@H]1C(=O)N2C(C(=O)[O-])=C(C[n+]3ccccc3)CS[C@H]12)c1csc(N)n1)C(=O)O` [Ceftazidime, ceftazidime] was run?
Answer: 4 µg/mL

What follows are molecules tested on P. aeruginosa PAOUW∆oprF in the same assay as above. Details: Pseudomonas aeruginosa, strain PAOUWΔoprF; agent alone; 37°C, 18–22 h; three biological replicates.
Type: cell-based, Pseudomonas aeruginosa
Experimental: as §2, §3, §4

Question: `CC(C)(O/N=C(\C(=O)N[C@@H]1C(=O)N2C(C(=O)[O-])=C(C[n+]3ccccc3)CS[C@H]12)c1csc(N)n1)C(=O)O` [Ceftazidime, ceftazidime] was tested. Which MIC did it give?
Answer: 2 µg/mL

The molecules below were run on P. aeruginosa 125A in the same assay as above. Details: Pseudomonas aeruginosa; strain 125A; agent alone; 37°C, 18–22 h; three biological replicates.
Type: cell-based, Pseudomonas aeruginosa
Experimental: as §2, §3, §4

Question: How did the MIC turn out when `CC(C)(O/N=C(\C(=O)N[C@@H]1C(=O)N2C(C(=O)[O-])=C(C[n+]3ccccc3)CS[C@H]12)c1csc(N)n1)C(=O)O` [Ceftazidime, ceftazidime] was run?
Answer: 8 µg/mL

These molecules were tested on P. aeruginosa 125B in the same assay as above. Details: Pseudomonas aeruginosa; strain 125B; agent alone; 37°C, 18–22 h; three biological replicates.
Type: cell-based, Pseudomonas aeruginosa
Experimental: as §2, §3, §4

Question: For `CC(C)(O/N=C(\C(=O)N[C@@H]1C(=O)N2C(C(=O)[O-])=C(C[n+]3ccccc3)CS[C@H]12)c1csc(N)n1)C(=O)O` [Ceftazidime, ceftazidime], which MIC is on record?
Answer: 4 µg/mL

What follows are molecules tested on PAO1 mutant MIN1_RW01_4, pmrB(F124L) (assay: microbe, parasite or virus in culture). Details: Pseudomonas aeruginosa, PAO1, read-out: MIC, Sensititre.
Type: cell-based
Experimental: as §1

Question: `CC(C)(O/N=C(\C(=O)N[C@@H]1C(=O)N2C(C(=O)[O-])=C(C[n+]3ccccc3)CS[C@H]12)c1csc(N)n1)C(=O)O` [Ceftazidime, ceftazidime] was tested. Which MIC did it give?
Answer: 2 µg/mL (≈ 3.66 µM)

What follows are molecules tested on PAO1 mutant MIN4_RW01_2, pmrB(F124S) (assay: microbe, parasite or virus in culture). Details: Pseudomonas aeruginosa, PAO1, read-out: MIC, Sensititre.
Type: cell-based
Experimental: as §1

Question: With `CC(C)(O/N=C(\C(=O)N[C@@H]1C(=O)N2C(C(=O)[O-])=C(C[n+]3ccccc3)CS[C@H]12)c1csc(N)n1)C(=O)O` [Ceftazidime, ceftazidime] as the molecule, how does the MIC read?
Answer: ≤ 1 µg/mL

From article PMC11823630, “In vitro potentiation of tetracyclines in Pseudomonas aeruginosa by RW01, a new cyclic peptide” (Antimicrobial Agents and Chemotherapy, 2024)
